Target: T1, human 5-HT1A receptors (Homo sapiens, UniProt P08908)
T1 construct: expressed in transfected cells; membranes used
T1 sequence (P08908 1-422): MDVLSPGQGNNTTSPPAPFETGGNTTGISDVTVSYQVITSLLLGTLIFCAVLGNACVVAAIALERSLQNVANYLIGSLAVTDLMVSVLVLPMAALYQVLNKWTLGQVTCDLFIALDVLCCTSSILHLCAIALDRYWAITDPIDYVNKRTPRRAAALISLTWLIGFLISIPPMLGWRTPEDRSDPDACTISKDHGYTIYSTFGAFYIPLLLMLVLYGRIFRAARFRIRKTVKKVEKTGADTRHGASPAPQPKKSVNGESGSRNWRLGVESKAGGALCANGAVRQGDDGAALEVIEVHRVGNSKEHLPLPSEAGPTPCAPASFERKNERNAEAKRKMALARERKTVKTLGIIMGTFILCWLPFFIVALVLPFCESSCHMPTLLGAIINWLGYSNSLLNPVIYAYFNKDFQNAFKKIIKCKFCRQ
Assay: [35S]-GTPγS binding assay: enhancement of 8-OH-DPAT-induced stimulation, human 5-HT1A CHO cell membranes
Assay type: biochemical
Details: n=6
Procedure: CHO cells stably transfected with cDNA encoding human 5-HT1A receptors (a generous gift from Dr Keith Parker) were maintained at 37° C. and 5% CO2 in Gibco™ Ham's F-12 Nutrient Mix supplied by Fisher Scientific UK Ltd that was supplemented both with 2 mM L-glutamine, 10% FBS and 0.6% penicillin-streptomycin, all also supplied by Fisher Scientific UK Ltd, and with the disulphate salt of G418 [(2R,3S,4R,5R,6S)-5-amino-6-{[(1R,2S,3S,4R,6S)-4,6-diamino-3-{[(2R,3R,4R,5R)-3,5-dihy-droxy-5-methyl-4-(methylamino)oxan-2-yl]oxy}2-hydroxy cyclohexyl]oxy}-2-[(1R)-1-hydroxyethyl]oxane-3,4-diol; […]] supplied by Sigma-Aldrich UK.
[^35S]-GTPγS binding assay. Each assay was carried out with human 5-HT1A CHO cell membranes (50 μg protein per well), GTPγS-binding buffer (50 mM Tris-HCl; 50 mM Tris-Base; 5 mM MgCl2; 1 mM EDTA; 100 mM NaCl; 1 mM DTT and 0.1% BSA), 0.1 nM [^35S]-GTPγS and 30 μM GDP, in a final volume of 500 μL (Cascio et al., 2010). Binding was initiated by the addition of [^35S]-GTPγS to the wells. Non-specific binding was measured in the presence of 30 μM GTPγS. Assays were performed at 30° C. for 60 min (Cascio et al., 2010). The reaction was terminated by a rapid vacuum filtration method using Tris-binding buffer as described previously by Cascio et al. (2010), and the radioactivity was quantified by liquid scintillation spectrometry. In all the [^35S]-GTPγS-binding assays, 0.1 nM [^35S]-GTPγS was used, […] and a protein concentration of […]. CBDA, HU-580, 8-OH-DPAT and WAY100635 were stored at −20° C. as 10 mM stock solutions dissolved in DMSO.
Net agonist-stimulated [^35S]-GTPγS binding values were calculated by subtracting basal binding values (obtained in the absence of agonist) from agonist-stimulated values (obtained in the presence of agonist) (Cascio et al., 2010). Values are expressed as means and variability as SEM or as 95% confidence limits. Mean EC50 and mean maximal effect (Emax) values, and SEM or 95% confidence limits of these values, have been calculated by nonlinear regression analysis using the equation for a sigmoid concentration-response curve (GraphPad Prism). P values<0.05 were considered significant. The data and statistical analysis comply with the recommendations on experimental design and analysis in pharmacology (Curtis et al., 2015).

Row | Structure (SMILES) | Emax (pretreatment 0.01 nM CBDA (FIG. 1A)) | Emax (pretreatment 0.1 nM CBDA (FIG. 1B), * P<0.05 vs vehicle) | Emax (pretreatment 1.0 nM CBDA (FIG. 1C), * P<0.05 vs vehicle) | Emax (pretreatment 10 nM CBDA (FIG. 1D), * P<0.05 vs vehicle) | Emax (pretreatment 100 nM CBDA (FIG. 1E)) | Effect of the compound by itself on [35S]-GTPγS binding (agonist or inverse agonist behaviour) (administered by itself at 0.01, 0.1, 1, 10 or 100 nM, data not shown) | Emax (pretreatment 0.001 nM HU-580 (FIG. 2A)) | Emax (pretreatment 0.001 nM HU-580 (FIG. 2B), * P<0.05 vs vehicle) | Emax (pretreatment 0.1 nM HU-580 (FIG. 2C), * P<0.05 vs vehicle) | Emax (pretreatment 1.0 nM HU-580 (FIG. 2D), * P<0.05 vs vehicle) | Emax (pretreatment 10 nM HU-580 (FIG. 2E), * P<0.05 vs vehicle) | Emax (pretreatment 100 nM HU-580 (FIG. 2F))
1 | C=C(C)[C@@H]1CCC(C)=C[C@H]1c1c(O)cc(CCCCC)c(C(=O)O)c1O [CBDA, Cannabidiolic acid] | 95.6% | 115% | 167% | 144% | 109% |  |  |  |  |  |  | 
2 | C=C(C)[C@@H]1CCC(C)=C[C@H]1c1c(O)cc(CCCCC)c(C(=O)OC)c1O [HU-580, Cannabidiolic Acid Methyl Ester] |  |  |  |  |  | did not behave as a 5-HT1A receptor agonist or inverse agonist | 99.8% | 127% | 125% | 140% | 139% | 92%

From US11440870B2, “Cannabidiolic acid esters compositions and uses thereof” (Yissum Research Development Company of the Hebrew …, priority 2017, dated 2022)
